Results taken from ChEMBL document CHEMBL1201862, “PubChem BioAssay data set” (2004).
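Where inhibition never reached the appropriate level, the endpoint shown equals the highest concentration tested. Otherwise, values were interpolated linearly from a five-concentration, 48-hour dose response in 96-well plates. Here, GI50 denotes the concentration required for 50% inhibition of growth.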 Calls of active or inactive are those of the source. Cut-off read from the data, not from the text of the source: active = GI50 up to about 1.1 µM and inactive = higher.

Assays:
Experiment in all cases: NCI tumour cell line growth inhibition, 48 h
Malme-3M = test system: Malme-3M
NCI-H23 = test system: NCI-H23
SK-MEL-2 = test system: SK-MEL-2
UACC-62 = test system: UACC-62
BT-549 = test system: BT-549
COLO 205 = test system: COLO 205
HT-29 = test system: HT-29
Hs-578T = test system: Hs-578T
OVCAR-5 = test system: OVCAR-5
MDA-N = test system: MDA-N
HCT-15 = test system: HCT-15
NCI-H226 = test system: NCI-H226
PC-3 = test system: PC-3
CAKI-1 = test system: CAKI-1
OVCAR-8 = test system: OVCAR-8
SN12C = test system: SN12C
K562 = test system: K562
HOP-62 = test system: HOP-62
SK-MEL-5 = test system: SK-MEL-5
UACC-257 = test system: UACC-257

Structure (SMILES)	GI50 (Malme-3M)	GI50 (NCI-H23)	GI50 (SK-MEL-2)	GI50 (UACC-62)	GI50 (BT-549)	GI50 (COLO 205)	GI50 (HT-29)	GI50 (Hs-578T)	GI50 (OVCAR-5)	GI50 (MDA-N)	GI50 (HCT-15) [µM]	GI50 (NCI-H226)	GI50 (PC-3)	GI50 (CAKI-1)	GI50 (OVCAR-8)	GI50 (SN12C)	GI50 (K562)	GI50 (HOP-62)	GI50 (SK-MEL-5)	GI50 (UACC-257)
S=C(/N=C1/NCC(CN2CCN(c3ccccc3)CC2)O1)Nc1ccccc1 (configuration not stated)	> 100 µM (inactive)	29.3 µM (inactive)	35.6 µM (inactive)	39.7 µM (inactive)	37.5 µM (inactive)	28.6 µM (inactive)	42.2 µM (inactive)	> 100 µM (inactive)	> 100 µM (inactive)	> 100 µM (inactive)	32.4	> 100 µM (inactive)	39.9 µM (inactive)	73.3 µM (inactive)	> 100 µM (inactive)	> 100 µM (inactive)	35.2 µM (inactive)	77.3 µM (inactive)	35.3 µM (inactive)	> 100 µM (inactive)
CCCCCCC(N)(CCCCCC)C(=O)Nn1c(C)ccc1C	> 100 µM (inactive)	15.5 µM (inactive)	> 100 µM (inactive)	48 µM (inactive)	> 100 µM (inactive)	57.4 µM (inactive)	28.4 µM (inactive)	18.8 µM (inactive)	> 100 µM (inactive)	> 100 µM (inactive)	24	43.7 µM (inactive)	5.14 µM (inactive)	–	50 µM (inactive)	> 100 µM (inactive)	> 100 µM (inactive)	> 100 µM (inactive)	21.9 µM (inactive)	36.4 µM (inactive)
NCCCN1CCN(CCCNc2ccc3nnn4c5ccccc5c(=O)c2c34)CC1	18.8 µM (inactive)	14.8 µM (inactive)	18.7 µM (inactive)	15.4 µM (inactive)	5.81 µM (inactive)	4.07 µM (inactive)	13.3 µM (inactive)	27.4 µM (inactive)	29.6 µM (inactive)	16.2 µM (inactive)	20.7	–	12.5 µM (inactive)	14.6 µM (inactive)	20 µM (inactive)	9.02 µM (inactive)	8.07 µM (inactive)	13.7 µM (inactive)	13.5 µM (inactive)	28.2 µM (inactive)
Cc1[nH]c(=O)c2oc3cc4ccccc4cc3c2c1C(=O)O	> 10 µM (inactive)	> 10 µM (inactive)	> 10 µM (inactive)	> 10 µM (inactive)	> 10 µM (inactive)	–	> 10 µM (inactive)	> 10 µM (inactive)	> 10 µM (inactive)	> 10 µM (inactive)	> 10	> 10 µM (inactive)	> 10 µM (inactive)	–	> 10 µM (inactive)	> 10 µM (inactive)	–	–	–	> 10 µM (inactive)
CC[C@@]12CCCN3CC[C@]4(c5cccc(OC)c5N(C(C)=O)[C@@H]4CC1)[C@H]32 [ASPIDOSPERMINE]	> 100 µM (inactive)	> 100 µM (inactive)	90.4 µM (inactive)	> 100 µM (inactive)	86.9 µM (inactive)	> 100 µM (inactive)	21 µM (inactive)	23.9 µM (inactive)	> 100 µM (inactive)	34.6 µM (inactive)	79.3	93.8 µM (inactive)	43 µM (inactive)	> 100 µM (inactive)	> 100 µM (inactive)	> 100 µM (inactive)	–	> 100 µM (inactive)	44.3 µM (inactive)	31.8 µM (inactive)
O=[N+]([O-])C(=C(Nc1cccc2cccnc12)Nc1cccc2cccnc12)C(Cl)=C(Cl)Cl	> 92.3 µM (inactive)	31.6 µM (inactive)	–	77.1 µM (inactive)	30.1 µM (inactive)	31 µM (inactive)	> 39 µM (inactive)	> 21.7 µM (inactive)	> 100 µM (inactive)	31.7 µM (inactive)	31.2	63.1 µM (inactive)	> 76 µM (inactive)	> 49.9 µM (inactive)	33.2 µM (inactive)	> 55.1 µM (inactive)	27.9 µM (inactive)	> 100 µM (inactive)	4.97 µM (inactive)	–
C=C1C(O)C2OC(=O)C(=C)C2C(OC(=O)/C(C)=C/C)CC2(C)OC2C2OC12 (configuration not stated)	10.3 µM (inactive)	8.28 µM (inactive)	5.47 µM (inactive)	15.3 µM (inactive)	7.71 µM (inactive)	7.1 µM (inactive)	5.47 µM (inactive)	20.7 µM (inactive)	5.89 µM (inactive)	2.2 µM (inactive)	2.55	> 100 µM (inactive)	15.3 µM (inactive)	10.2 µM (inactive)	6.11 µM (inactive)	2.82 µM (inactive)	–	14.5 µM (inactive)	6.22 µM (inactive)	15.7 µM (inactive)
O=CC(O)C(O)C(O)C(O)C(=O)NCCCCCCCCCCCCNC(=O)C(O)C(O)C(O)C(O)C=O (configuration not stated)	> 100 µM (inactive)	> 100 µM (inactive)	> 100 µM (inactive)	> 100 µM (inactive)	> 100 µM (inactive)	> 100 µM (inactive)	> 100 µM (inactive)	> 100 µM (inactive)	> 100 µM (inactive)	> 100 µM (inactive)	> 100	> 100 µM (inactive)	> 100 µM (inactive)	–	> 100 µM (inactive)	–	–	> 100 µM (inactive)	> 100 µM (inactive)	> 100 µM (inactive)
O=C(Oc1ccc2c(c1)CN(Cc1ccccc1)CO2)c1ccccc1	18.9 µM (inactive)	15.8 µM (inactive)	22 µM (inactive)	16.8 µM (inactive)	18.5 µM (inactive)	16.9 µM (inactive)	18.5 µM (inactive)	23.7 µM (inactive)	18.3 µM (inactive)	16.8 µM (inactive)	16.9	–	15.9 µM (inactive)	20 µM (inactive)	16.7 µM (inactive)	17.1 µM (inactive)	17.6 µM (inactive)	18.4 µM (inactive)	17.1 µM (inactive)	15.1 µM (inactive)
COc1ccc(-n2sc3ncccc3c2=O)cc1	15.8 µM (inactive)	19.3 µM (inactive)	> 100 µM (inactive)	36.4 µM (inactive)	20.4 µM (inactive)	16.9 µM (inactive)	20.8 µM (inactive)	26.3 µM (inactive)	24.8 µM (inactive)	21.5 µM (inactive)	22.6	39.4 µM (inactive)	23.8 µM (inactive)	–	26.8 µM (inactive)	38.2 µM (inactive)	–	23.1 µM (inactive)	20 µM (inactive)	18.7 µM (inactive)
COc1cccc(Nc2nc(C)c([N+](=O)[O-])c(Nc3cccc(OC)c3)n2)c1	53.1 µM (inactive)	16.2 µM (inactive)	15.9 µM (inactive)	5.75 µM (inactive)	1.85 µM (inactive)	13.9 µM (inactive)	12.6 µM (inactive)	50.1 µM (inactive)	> 100 µM (inactive)	17.9 µM (inactive)	18.4	40.8 µM (inactive)	12.4 µM (inactive)	–	5.74 µM (inactive)	54.3 µM (inactive)	8.65 µM (inactive)	12.1 µM (inactive)	11.4 µM (inactive)	9.57 µM (inactive)
